Measured values from the supplement of paper PMC11061612.

Legend:
[1] = tested on: NCI-H1876 (Small Cell Lung Carcinoma); assay: combination Emax (second highest fraction inhibited in the dose matrix, 72 h); higher = more inhibition; extreme values may be limits of the assay
In short: (§1)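 After 24 hours at 37°C and 5% CO2 in 1536-well plates, cells in DMEM/F12 or RPMI plus 10% FBS received two-drug dose matrices for 72 hours. Viability came from CellTiter-Glo 2.0 luminescence and was scaled as inhibition, anchored at 0 by vehicle wells and at 1 by blank wells. Combination Emax is taken as the second-highest inhibition in the matrix, and Bliss excess as the observed combination effect less EA + EB − EA·EB, with EA and EB the single-agent effects.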

[2] = tested on: BxPC-3 (Pancreatic Carcinoma); assay: as above
In short: as §1

[3] = tested on: SNU-407 (Colorectal Carcinoma); assay: as above
In short: as §1

UACC-257 (Melanoma) = assay: Bliss excess, mean over the matrix (fraction); higher = more synergy
In short: as §1

[4] = tested on: COR-L88 (Small Cell Lung Carcinoma); assay: as above
In short: as §1

[5] = tested on: Raji (Burkitt's Lymphoma); assay: as above
In short: as §1

[6] = tested on: NMC-G1 (Low Grade Glioma); assay: as above
In short: as §1

IST-MEL1 (Melanoma) = assay: as above
In short: as §1

[7] = tested on: MOLT-13 (T-Lymphoblastic Leukemia); assay: as above
In short: as §1

[8] = tested on: MS-1 (Small Cell Lung Carcinoma); assay: as above
In short: as §1

[9] = tested on: KP-4 (Pancreatic Carcinoma); assay: as above
In short: as §1

[10] = tested on: MM1S (Plasma Cell Myeloma); assay: as above
In short: as §1

[11] = tested on: SNU-407 (Colorectal Carcinoma); assay: as above
In short: as §1

NB1 (Neuroblastoma) = assay: as above
In short: as §1

[12] = tested on: HT-1080 (Other Solid Carcinomas); assay: as above
In short: as §1

[13] = tested on: SK-CO-1 (Colorectal Carcinoma); assay: as above
In short: as §1

[14] = tested on: NCI-H1341 (Small Cell Lung Carcinoma); assay: as above
In short: as §1

[15] = tested on: SNU-423 (Hepatocellular Carcinoma); assay: as above
In short: as §1

[16] = tested on: IA-LM (Non-Small Cell Lung Carcinoma); assay: as above
In short: as §1

GAK (Melanoma) = assay: as above
In short: as §1
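Wherever Bliss excess, mean over the matrix is given: after 72 h of two-drug dosing.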

| SMILES | combination Emax [1] | combination Emax [2] | combination Emax [3] | Bliss excess (UACC-257 (Melanoma)) | Bliss excess [4] | Bliss excess [5] | Bliss excess [6] | Bliss excess (IST-MEL1 (Melanoma)) | Bliss excess [7] | Bliss excess [8] | Bliss excess [9] | Bliss excess [10] | Bliss excess [11] | Bliss excess (NB1 (Neuroblastoma)) | Bliss excess [12] | Bliss excess [13] | Bliss excess [14] | Bliss excess [15] | Bliss excess [16] | Bliss excess (GAK (Melanoma)) |
| --- | --- | --- | --- | --- | --- | --- | --- | --- | --- | --- | --- | --- | --- | --- | --- | --- | --- | --- | --- | --- |
| CN(CCO)CC[C@H](CSc1ccccc1)Nc1ccc(S(=O)(=O)NC(=O)c2ccc(N3CCC([C@@H](O)c4ccccc4-c4ccc(Cl)cc4)CC3)cc2)cc1S(=O)(=O)C(F)(F)F [AZD4320] + C[C@@H]1COCCN1C2=NC(=NC(=C2)C3(CC3)[S@](=N)(=O)C)C4=C5C=CNC5=NC=C4 [AZD6738] (first compound max 1 µM, 7x7, partner max 10 µM) | 1 | 0.751 | 0.709 | -0.0663 | 0.0079 | 0.0056 | -0.0724 | -0.0336 | -0.0057 | -0.0085 | -0.0444 | -0.0008 | -0.0568 | -0.0023 | 0.0171 | -0.0858 | -0.0017 | -0.0359 | -0.0404 | 0.0029 |
| Cc1c2c(nn1C)CSCc1cc(n(C)n1)CSc1cc(c3ccccc3c1)OCCCc1c(C(=O)O)n(C)c3c-2c(Cl)ccc13 [AZD5991] + C=CCn1c(=O)c2cnc(Nc3ccc(N4CCN(C)CC4)cc3)nc2n1-c1cccc(C(C)(C)O)n1 [AZD1775] (first compound max 1 µM, partner max 1 µM) | 0.992 | 0.616 | 0.796 | 0.0163 | -0.0463 | -0.013 | -0.0012 | -0.0318 | -0.0071 | -0.0462 | -0.0245 | 0.0547 | -0.0183 | -0.0156 | 0.0345 | -0.0425 | 0.0185 | -0.0976 | -0.0011 | -0.0077 |
| CC1(C)CCC(CN2CCN(c3ccc(C(=O)NS(=O)(=O)c4ccc(NCC5CCOCC5)c([N+](=O)[O-])c4)c(Oc4cnc5[nH]ccc5c4)c3)CC2)=C(c2ccc(Cl)cc2)C1 [Venetoclax] + C1CN(CCC1(C(=O)N[C@@H](CCO)C2=CC=C(C=C2)Cl)N)C3=NC=NC4=C3C=CN4 [Capivasertib] (first compound max 1 µM, 7x7, partner max 3 µM) | 0.259 | 0.297 | 0.388 | -0.0707 | -0.0181 | -0.0008 | -0.0683 | -0.0762 | 0.0354 | -0.0572 | -0.0623 | -0.0028 | -0.0204 | -0.0596 | -0.0351 | -0.0247 | 0.0321 | -0.0386 | -0.057 | -0.0305 |
| COc1cccc(OCCCN)c1-c1cc(Nc2cnc(C#N)cn2)n[nH]1 [Prexasertib] + Cc1cc2ncnn2cc1Nc1ncc2c(n1)n(C1CCOCC1)c(=O)n2C [AZD7648] (first compound max 1 µM, 7x7, partner max 10 µM) | 0.988 | 0.68 | 0.597 | -0.0111 | -0.0628 | -0.0135 | -0.0374 | -0.0046 | 0.004 | -0.0228 | 0.0031 | -0.0108 | 0.0252 | 0.0251 | 0.0234 | -0.009 | 0.0194 | -0.0244 | 0.0324 | -0.0028 |
| CC1(C)CCC(CN2CCN(c3ccc(C(=O)NS(=O)(=O)c4ccc(NCC5CCOCC5)c([N+](=O)[O-])c4)c(Oc4cnc5[nH]ccc5c4)c3)CC2)=C(c2ccc(Cl)cc2)C1 [Venetoclax] + C[C@@H]1COCCN1C2=NC(=NC(=C2)C3(CC3)[S@](=N)(=O)C)C4=C5C=CNC5=NC=C4 [AZD6738] (first compound max 1 µM, 7x7, partner max 10 µM) | 0.942 | 0.389 | 0.77 | -0.0092 | 0.0109 | 0.0091 | -0.0032 | -0.019 | 0.0201 | 0.0066 | -0.0282 | 0.0444 | -0.0138 | -0.0444 | -0.0253 | -0.103 | 0.0142 | -0.0801 | -0.01 | -0.0586 |
| CC1(C)CCC(CN2CCN(c3ccc(C(=O)NS(=O)(=O)c4ccc(NCC5CCOCC5)c([N+](=O)[O-])c4)c(Oc4cnc5[nH]ccc5c4)c3)CC2)=C(c2ccc(Cl)cc2)C1 [Venetoclax] + Cc1cc2ncnn2cc1Nc1ncc2c(n1)n(C1CCOCC1)c(=O)n2C [AZD7648] (first compound max 1 µM, 7x7, partner max 10 µM) | 0.274 | 0.283 | 0.373 | -0.0235 | -0.0121 | 0.0289 | -0.0508 | -0.0486 | 0.063 | 0.0008 | -0.061 | 0.0556 | 0.0174 | -0.0358 | -0.0487 | -0.018 | 0.0752 | -0.111 | 0.0086 | -0.0209 |
| Cc1cc2ncnn2cc1Nc1ncc2c(n1)n(C1CCOCC1)c(=O)n2C [AZD7648] + CN(C)CCCOc1ccc(-c2ccc3ncc4c(c3c2)n(C2CCOCC2)c(=O)n4C)cn1 [AZD0156] (first compound max 10 µM, 7x7, partner max 1 µM) | 0.317 | 0.176 | 0.179 | -0.02 | -0.0326 | 0.0416 | -0.0497 | -0.0228 | 0.0053 | 0.0245 | 0.0228 | 0.0196 | -0.0385 | 0.0084 | -0.0246 | -0.0486 | 0.0157 | -0.0133 | -0.0133 | 0.0232 |
| COc1cccc2c1C(=O)c1c(O)c3c(c(O)c1C2=O)C[C@@](O)(C(=O)CO)C[C@@H]3O[C@H]1C[C@H](N)[C@H](O)[C@H](C)O1 [Doxorubicin] + Cc1cc2ncnn2cc1Nc1ncc2c(n1)n(C1CCOCC1)c(=O)n2C [AZD7648] (first compound max 1 µM, 7x7, partner max 10 µM) | 0.978 | 0.455 | 0.406 | -0.0059 | -0.0228 | 0.0979 | -0.0029 | 0.0511 | 0.209 | 0.0686 | 0.0583 | 0.0891 | -0.0143 | 0.0581 | 0.108 | -0.0163 | 0.0628 | 0.0414 | 0.0044 | 0.0711 |
| Cc1cc2ncnn2cc1Nc1ncc2c(n1)n(C1CCOCC1)c(=O)n2C [AZD7648] + O=C(c1cc(Cc2n[nH]c(=O)c3ccccc23)ccc1F)N1CCN(C(=O)C2CC2)CC1 [Olaparib] (first compound max 10 µM, 7x7, partner max 10 µM) | 0.723 | 0.0851 | 0.239 | -0.0422 | -0.0432 | 0.0011 | -0.0538 | -0.0517 | 0.0242 | -0.0087 | -0.0225 | 0.0141 | -0.0796 | -0.0431 | -0.0165 | -0.0466 | 0.013 | -0.0451 | -0.042 | -0.0379 |
| C=CCn1c(=O)c2cnc(Nc3ccc(N4CCN(C)CC4)cc3)nc2n1-c1cccc(C(C)(C)O)n1 [AZD1775] + C[C@@H]1COCCN1C2=NC(=NC(=C2)C3(CC3)[S@](=N)(=O)C)C4=C5C=CNC5=NC=C4 [AZD6738] (first compound max 1 µM, partner max 10 µM) | 0.987 | 0.624 | 0.758 | 0.0398 | 0.04 | 0.109 | -0.0028 | 0.021 | 0.0735 | 0.0322 | 0.031 | -0.0128 | 0.0031 | -0.0161 | 0.0145 | -0.0067 | 0.0723 | -0.0095 | 0.0477 | 0.0196 |
| CC1(C)CCC(CN2CCN(c3ccc(C(=O)NS(=O)(=O)c4ccc(NCC5CCOCC5)c([N+](=O)[O-])c4)c(Oc4cnc5[nH]ccc5c4)c3)CC2)=C(c2ccc(Cl)cc2)C1 [Venetoclax] + CN(C)CCCOc1ccc(-c2ccc3ncc4c(c3c2)n(C2CCOCC2)c(=O)n4C)cn1 [AZD0156] (first compound max 1 µM, 7x7, partner max 1 µM) | 0.282 | 0.276 | 0.234 | -0.004 | -0.0237 | 0.0279 | -0.0373 | -0.0207 | 0.0928 | 0.0128 | -0.0344 | 0.0344 | -0.0437 | -0.0278 | -0.0434 | -0.0119 | 0.007 | -0.0429 | -0.0238 | -0.0378 |
| CCN(CCO)CCCOc1ccc2c(Nc3cc(CC(=O)Nc4cccc(F)c4)[nH]n3)ncnc2c1 [AZD2811] + O=C(c1cc(Cc2n[nH]c(=O)c3ccccc23)ccc1F)N1CCN(C(=O)C2CC2)CC1 [Olaparib] (first compound max 1 µM, 7x7, partner max 10 µM) | 0.821 | 0.244 | 0.306 | -0.0322 | -0.0475 | 0.0005 | -0.025 | 0.0192 | -0.0146 | 0.0107 | 0.0525 | 0.0541 | -0.0292 | -0.0581 | -0.0043 | 0.0223 | 0.0125 | -0.0138 | -0.031 | -0.0049 |
| Cc1c2c(nn1C)CSCc1cc(n(C)n1)CSc1cc(c3ccccc3c1)OCCCc1c(C(=O)O)n(C)c3c-2c(Cl)ccc13 [AZD5991] + CN(C)CCCOc1ccc(-c2ccc3ncc4c(c3c2)n(C2CCOCC2)c(=O)n4C)cn1 [AZD0156] (first compound max 1 µM, 7x7, partner max 1 µM) | 0.629 | 0.174 | 0.676 | -0.0064 | -0.0129 | -0.0213 | -0.0387 | -0.0282 | -0.0198 | -0.0347 | 0.0187 | 0.0391 | -0.463 | -0.0522 | -0.0148 | -0.0182 | 0.0072 | -0.0259 | -0.0333 | 0.0152 |
| CN(CCO)CC[C@H](CSc1ccccc1)Nc1ccc(S(=O)(=O)NC(=O)c2ccc(N3CCC([C@@H](O)c4ccccc4-c4ccc(Cl)cc4)CC3)cc2)cc1S(=O)(=O)C(F)(F)F [AZD4320] + CN(C)CCCOc1ccc(-c2ccc3ncc4c(c3c2)n(C2CCOCC2)c(=O)n4C)cn1 [AZD0156] (first compound max 1 µM, 7x7, partner max 1 µM) | 0.982 | 0.0513 | 0.0943 | -0.0323 | -0.0161 | 0.0041 | -0.0362 | -0.0151 | 0.0257 | 0.0275 | -0.0604 | 0.0753 | -0.0555 | -0.0202 | -0.0895 | -0.0758 | 0.0517 | -0.0727 | -0.0239 | -0.0381 |
